# Experimental data as given in patent US7138361B2, “Herbicidal heterocycles” (E. I. du Pont de Nemours and Company, priority 2000, dated 2006).
# Key:
# Format in all cases: in vivo
# [1] = tested on: winter barley (Hordeum vulgare); experiment: Test C postemergence
# How it was run: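 Response scores (0 no effect to 100 complete control) came from visual comparison with untreated controls 12 to 14 days after treatment. Preemergence application was made to seeded soil; postemergence, to plants at the 1- to 4-leaf stage.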
# [2] = tested on: redroot pigweed (Amaranthus retroflexus); experiment: Test A preemergence, soil drench; details: approx. eleven days
# Procedure: (§1) Seeds of barnyardgrass (Echinochloa crus-galli), crabgrass (Digitaria spp.), giant foxtail (Setaria viridis), morning glory (Ipomoea spp.), redroot pigweed (Amaranthus retroflexus) and velvetleaf (Abutilon theophrasti) were planted into a sandy loam soil and treated preemergence by soil drench with test chemicals formulated in a non-phytotoxic solvent mixture which included a surfactant. At the same time, these crop and weed species were also treated postemergence sprayed to runoff with test chemicals formulated in the same manner. Plants ranged in height from two to eighteen cm and were in the one- to two-leaf stage for the postemergence treatment. Treated plants and untreated controls were maintained in a greenhouse for approximately eleven days, after which time all treated plants were compared to untreated controls and visually evaluated for injury. Plant response ratings, summarized in Table A, are based on a 0 to 10 scale where 0 is no effect and 10 is complete control. A dash (-) response means no test results.
# [3] = tested on: giant foxtail (Setaria viridis); experiment: Test A preemergence, soil drench; details: approx. eleven days
# Procedure: as §1
# [4] = tested on: barnyardgrass (Echinochloa crus-galli); experiment: Test A preemergence, soil drench; details: approx. eleven days
# Procedure: as §1
# [5] = tested on: morning glory (Ipomoea spp.); experiment: Test A preemergence, soil drench; details: Morningglory, approx. eleven days
# Procedure: as §1
# [6] = tested on: velvetleaf (Abutilon theophrasti); experiment: Test A preemergence, soil drench; details: approx. eleven days
# Procedure: as §1
# [7] = tested on: crabgrass (Digitaria spp.); experiment: Test A preemergence, soil drench; details: approx. eleven days
# Procedure: as §1
smiles,measurement,setting,value
CC1(c2ccn(C3OCN(c4cccc(OC(F)(F)F)c4)C3=O)n2)CC1 (stereo not drawn) [Compound 69],"Plant response rating, Barley, Winter","[1]; Rate 62 g/ha, scale 0 to 100",0
same,"Plant response rating, Barley, Winter","[1]; Rate 125 g/ha, scale 0 to 100, 0 no effect, 100 complete control",0
same,"Plant response rating, Barley, Winter","[1]; Rate 500 g/ha, scale 0 to 100 (0 no effect, 100 complete control)",10
CC(C)(C)c1nn(C2CCN(c3cccc(C(F)(F)F)c3)C2=O)cc1Cl (stereo not drawn) [Compound 14],Plant response rating (visual injury vs untreated controls),[2]; Rate 500 g/ha,40
same,Plant response rating (visual injury vs untreated controls),[2]; Rate 2000 g/ha,70
same,Plant response rating (visual injury vs untreated controls),[3]; Rate 500 g/ha,0
same,Plant response rating (visual injury vs untreated controls),[3]; Rate 2000 g/ha,0
same,Plant response rating (visual injury vs untreated controls),[4]; Rate 500 g/ha,0
same,Plant response rating (visual injury vs untreated controls),[4]; Rate 2000 g/ha,0
same,Plant response rating (visual injury vs untreated controls),[5]; Rate 500 g/ha,0
same,Plant response rating (visual injury vs untreated controls),[5]; Rate 2000 g/ha,0
same,Plant response rating (visual injury vs untreated controls),[6]; Rate 500 g/ha,0
same,Plant response rating (visual injury vs untreated controls),[6]; Rate 2000 g/ha,0
same,Plant response rating (visual injury vs untreated controls),[7]; Rate 500 g/ha,0
same,Plant response rating (visual injury vs untreated controls),[7]; Rate 2000 g/ha,0
O=C1C(n2cc(Cl)c(C3CC3)n2)CCN1c1cccc(C(F)(F)F)c1 (stereo not drawn) [Compound 12],Plant response rating (visual injury vs untreated controls),[2]; Rate 500 g/ha,0
same,Plant response rating (visual injury vs untreated controls),[2]; Rate 2000 g/ha,40
same,Plant response rating (visual injury vs untreated controls),[3]; Rate 500 g/ha,0
same,Plant response rating (visual injury vs untreated controls),[3]; Rate 2000 g/ha,30
same,Plant response rating (visual injury vs untreated controls),[4]; Rate 500 g/ha,0
same,Plant response rating (visual injury vs untreated controls),[4]; Rate 2000 g/ha,0
same,Plant response rating (visual injury vs untreated controls),[5]; Rate 500 g/ha,0
same,Plant response rating (visual injury vs untreated controls),[5]; Rate 2000 g/ha,0
same,Plant response rating (visual injury vs untreated controls),[6]; Rate 500 g/ha,0
same,Plant response rating (visual injury vs untreated controls),[6]; Rate 2000 g/ha,0
same,Plant response rating (visual injury vs untreated controls),[7]; Rate 500 g/ha,0
same,Plant response rating (visual injury vs untreated controls),[7]; Rate 2000 g/ha,60
CC1CCc2cn(C3CCN(c4cccc(C(F)(F)F)c4)C3=O)nc21 (stereo not drawn) [Compound 11],Plant response rating (visual injury vs untreated controls),[2]; Rate 500 g/ha,100
same,Plant response rating (visual injury vs untreated controls),[2]; Rate 2000 g/ha,100
same,Plant response rating (visual injury vs untreated controls),[3]; Rate 500 g/ha,100
same,Plant response rating (visual injury vs untreated controls),[3]; Rate 2000 g/ha,100
same,Plant response rating (visual injury vs untreated controls),[4]; Rate 500 g/ha,100
same,Plant response rating (visual injury vs untreated controls),[4]; Rate 2000 g/ha,100
same,Plant response rating (visual injury vs untreated controls),[5]; Rate 500 g/ha,0
same,Plant response rating (visual injury vs untreated controls),[5]; Rate 2000 g/ha,0
same,Plant response rating (visual injury vs untreated controls),[6]; Rate 500 g/ha,0
same,Plant response rating (visual injury vs untreated controls),[6]; Rate 2000 g/ha,20
same,Plant response rating (visual injury vs untreated controls),[7]; Rate 500 g/ha,100
same,Plant response rating (visual injury vs untreated controls),[7]; Rate 2000 g/ha,100
CC(C)(C)c1ccn(C2OCN(c3cccc(C(F)(F)F)c3)C2=O)n1 (stereo not drawn) [compound 9],Plant response rating (visual injury vs untreated controls),[2]; Rate 500 g/ha,100
same,Plant response rating (visual injury vs untreated controls),[2]; Rate 2000 g/ha,100
same,Plant response rating (visual injury vs untreated controls),[3]; Rate 500 g/ha,100
same,Plant response rating (visual injury vs untreated controls),[3]; Rate 2000 g/ha,100
same,Plant response rating (visual injury vs untreated controls),[4]; Rate 500 g/ha,100
same,Plant response rating (visual injury vs untreated controls),[4]; Rate 2000 g/ha,100
same,Plant response rating (visual injury vs untreated controls),[5]; Rate 500 g/ha,0
same,Plant response rating (visual injury vs untreated controls),[5]; Rate 2000 g/ha,0
same,Plant response rating (visual injury vs untreated controls),[6]; Rate 500 g/ha,20
same,Plant response rating (visual injury vs untreated controls),[6]; Rate 2000 g/ha,10
same,Plant response rating (visual injury vs untreated controls),[7]; Rate 500 g/ha,90
same,Plant response rating (visual injury vs untreated controls),[7]; Rate 2000 g/ha,100
O=C1C(n2cccn2)CCN1c1cccc(C(F)(F)F)c1 (stereo not drawn) [Compound 15],Plant response rating (visual injury vs untreated controls),[2]; Rate 500 g/ha,30
same,Plant response rating (visual injury vs untreated controls),[2]; Rate 2000 g/ha,100
same,Plant response rating (visual injury vs untreated controls),[3]; Rate 500 g/ha,50
same,Plant response rating (visual injury vs untreated controls),[3]; Rate 2000 g/ha,100
same,Plant response rating (visual injury vs untreated controls),[4]; Rate 500 g/ha,10
same,Plant response rating (visual injury vs untreated controls),[4]; Rate 2000 g/ha,10
same,Plant response rating (visual injury vs untreated controls),[5]; Rate 500 g/ha,0
same,Plant response rating (visual injury vs untreated controls),[5]; Rate 2000 g/ha,0
same,Plant response rating (visual injury vs untreated controls),[6]; Rate 500 g/ha,30
same,Plant response rating (visual injury vs untreated controls),[6]; Rate 2000 g/ha,100
same,Plant response rating (visual injury vs untreated controls),[7]; Rate 500 g/ha,80
same,Plant response rating (visual injury vs untreated controls),[7]; Rate 2000 g/ha,100
O=C1C(n2ccc(C3CC3)n2)OCN1c1cccc(C(F)(F)F)c1 (stereo not drawn) [Compound 28],Plant response rating (visual injury vs untreated controls),[2]; Rate 500 g/ha,100
same,Plant response rating (visual injury vs untreated controls),[2]; Rate 2000 g/ha,100
same,Plant response rating (visual injury vs untreated controls),[3]; Rate 500 g/ha,100
same,Plant response rating (visual injury vs untreated controls),[3]; Rate 2000 g/ha,100
same,Plant response rating (visual injury vs untreated controls),[4]; Rate 500 g/ha,100
same,Plant response rating (visual injury vs untreated controls),[4]; Rate 2000 g/ha,100
same,Plant response rating (visual injury vs untreated controls),[5]; Rate 500 g/ha,0
same,Plant response rating (visual injury vs untreated controls),[5]; Rate 2000 g/ha,0
same,Plant response rating (visual injury vs untreated controls),[6]; Rate 500 g/ha,10
same,Plant response rating (visual injury vs untreated controls),[6]; Rate 2000 g/ha,10
same,Plant response rating (visual injury vs untreated controls),[7]; Rate 500 g/ha,90
same,Plant response rating (visual injury vs untreated controls),[7]; Rate 2000 g/ha,100
CC1(C)CCc2cn(C3CCN(c4cccc(C(F)(F)F)c4)C3=O)nc21 (stereo not drawn) [Compound 10],Plant response rating (visual injury vs untreated controls),[2]; Rate 500 g/ha,100
same,Plant response rating (visual injury vs untreated controls),[2]; Rate 2000 g/ha,100
same,Plant response rating (visual injury vs untreated controls),[3]; Rate 500 g/ha,90
same,Plant response rating (visual injury vs untreated controls),[3]; Rate 2000 g/ha,100
same,Plant response rating (visual injury vs untreated controls),[4]; Rate 500 g/ha,100
same,Plant response rating (visual injury vs untreated controls),[4]; Rate 2000 g/ha,100
same,Plant response rating (visual injury vs untreated controls),[5]; Rate 500 g/ha,0
same,Plant response rating (visual injury vs untreated controls),[5]; Rate 2000 g/ha,20
same,Plant response rating (visual injury vs untreated controls),[6]; Rate 500 g/ha,20
same,Plant response rating (visual injury vs untreated controls),[6]; Rate 2000 g/ha,10
same,Plant response rating (visual injury vs untreated controls),[7]; Rate 500 g/ha,90
same,Plant response rating (visual injury vs untreated controls),[7]; Rate 2000 g/ha,100
